Test results published in patent US8697685B2, “Chemical compounds” (GlaxoSmithKline LLC, priority 2008, dated 2014).

Target: T1, full length PDK1 (Homo sapiens, UniProt O15530)
T1 construct: Full-length human 3-Phosphoinositide Dependent protein Kinase-1; made in house; host or cells: baculovirus / Sf9 insect cells
T1 sequence (O15530 1-556): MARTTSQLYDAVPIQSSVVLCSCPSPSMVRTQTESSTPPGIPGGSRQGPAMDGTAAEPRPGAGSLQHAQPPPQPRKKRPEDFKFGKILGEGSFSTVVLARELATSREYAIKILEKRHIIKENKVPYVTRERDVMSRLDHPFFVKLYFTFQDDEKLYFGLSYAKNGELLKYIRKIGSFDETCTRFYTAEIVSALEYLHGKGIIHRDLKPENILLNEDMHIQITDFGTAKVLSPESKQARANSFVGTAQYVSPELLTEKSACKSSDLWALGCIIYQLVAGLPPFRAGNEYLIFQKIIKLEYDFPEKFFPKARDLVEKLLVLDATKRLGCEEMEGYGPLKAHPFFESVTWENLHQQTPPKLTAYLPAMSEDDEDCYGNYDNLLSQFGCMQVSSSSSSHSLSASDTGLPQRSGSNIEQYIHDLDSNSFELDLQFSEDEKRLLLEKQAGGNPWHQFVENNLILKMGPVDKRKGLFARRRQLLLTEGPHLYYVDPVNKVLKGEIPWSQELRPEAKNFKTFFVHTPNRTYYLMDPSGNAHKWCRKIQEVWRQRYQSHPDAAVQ
Experiment: PDK1 enzyme assays (substrate phosphorylation: LEADseeker scintillation proximity, TR-FRET, PDKtide)
Type: biochemical
Conditions: in at least one experimental run, read-out: IC50 against full length PDK1
Protocol: Substrate phosphorylation assays are carried out as follows:
Biotinylated-hAKT1: Human AKT1 (containing amino acid residues 136-480, as annotated by National Center for Biotechnology Information (NCBI) accession number AAL55732.1, with a MetLysLysHis6 N-terminal addition) is purified to >90% from lysate of baculovirus expression by Nickel Chelating ProBond resin (InVitrogen), Q-Sepharose Fast Flow, and Superdex 200 size exclusion chromatography. Biotinylation is achieved using EZ-Link Sulfo-NHS-LC Biotin (Pierce). Samples, in 25 mM HEPES, pH 7.5, 200 mM NaCl, 2 mM DTT, and 30% glycerol are stored at −80C until use.
Full-length human 3-Phosphoinositide Dependent protein Kinase-1 (hPDK1; National Center for Biotechnology Information (NCBI) accession number AAH39158.1 with a MetGlyHis6 N-terminal addition) is purified from baculovirus expression in Sf9 cells. Purity of approximately 80% is achieved by the use of chelation chromatography (Ni-NTA Superflow) and desalting columns. Samples, in 25 mM HEPES, 150 mM NaCl, 2.5 mM DTT, 0.05% Triton, 30% glycerol, pH 8.0, are stored at −80° C. until use.
The 39 amino acid biotinylated-PDKtide peptide Seq. ID No. 1: (Biotin-Ahx-[…]) was custom synthesized by 21st Century Biochemicals. […] The concentration was confirmed by quantitative amino acid analysis.
Scintillation Proximity (LEADseeker) Kinase Assay of Purified hPDK1:
Assays are performed in 384-well microtiter plates (Greiner, Catalog No. 784075). The reaction volume (10 μl) contains, in final concentrations, 25 mM MOPS (pH 7.5), 10 mM MgCl2, 50 mM KCl, 0.1 mg/ml BSA, 1 μM ATP, 3 uCi/ml ^33PγATP, 5 mM DTT, 1 mM CHAPS or 0.05% Tween20, 0.35 μM AKT1 biotinylated protein, and 10 nM hPDK1.
Compounds, titrated in DMSO, are evaluated at eleven concentrations ranging from 50 μM to 2 μM. […] Reactions are stopped after 3 hours at room temperature by the addition of 50 mM EDTA, 5 mg/ml LEADseeker beads (GE Healthcare) in PBS (10 ul). Beads are allowed to settle overnight, and samples are imaged on Viewlux (PerkinElmer).
The data for compound concentration responses were plotted as % Inhibition, calculated with the data reduction formula 100*(1−[(U1−C2)/(C1−C2)]), versus concentration of compound, where
Data were fitted to the curve described by:
TR-FRET Kinase Assay of Purified hPDK1:
Assays are performed in 384-well microtiter plates (Greiner, Catalog No. 784076).
As previously described for the Scintillation Proximity protocol, hPDK1 is pre-incubated (30 minutes at room temperature) with compounds before initiating phosphorylation of AKT1 by addition of substrate to the hPDK1 and compound mix. Reactions are stopped after 4-6 hours at room temperature by the addition to final concentrations of 0.02 M EDTA, 0.0875 μM Streptavidin APC (PerkinElmer), 0.03 μM AKT1 (phospho T308) antibody (Abcam Inc.), 0.00375 μM Lance Eu-labeled anti rabbit IgG Antibody (PerkinElmer). Antibody binding reaches equilibrium in 30 minutes before signal is read on an EnVision™ 2103 Multilabel Reader (PerkinElmer). APC Signals are normalized to Europium signal. Data processing is the same as described for the Scintillation Proximity assay with the exception of the generation of the “C2” control by addition of buffer without hPDK1 to control wells at t=0 instead of EDTA.
Scintillation Proximity (LEADseeker) Kinase Assay of Purified hPDK1 using Biotinylated-PDKtide Peptide:
Assays are performed in 384-well microtiter plates (Greiner, Catalog No. 784075). The reaction volume (10 μl) contains, in final concentrations, 25 mM MOPS (pH 7.5), 10 mM MgCl2, 50 mM KCl, 0.1 mg/ml BSA, 1 μM ATP, 3 uCi/ml ^33PγATP, 5 mM DTT, 0.5 mM CHAPS, 1 μM biotinylated-PDKtide peptide, and 0.5 nM hPDK1.
Compounds, titrated in DMSO, are evaluated at eleven concentrations ranging from 25 μM to 0.4 pM. […] Reactions are stopped after 4 hours at room temperature by the addition of 50 mM EDTA, 5 mg/ml LEADseeker beads (GE Healthcare) in PBS (10 ul).

SMILES | IC50
CC[C@@H]1COCCN1c1cc(-c2cc(NC3CCCC3)c3c(N)n[nH]c3c2)nc(NC)n1 [Example 181, N^4-Cyclopentyl-6-[6-[(3R)-3-ethyl-4-morpholinyl]-2-(methylamino)-4-pyrimidinyl]-1H-indazole-3,4-diamine] | < 0.15 µM
COc1cc(-c2cc(N3CCOC[C@H]3C)nc(N)n2)cc2[nH]nc(N)c12 [Example 200, 6-{2-Amino-6-[(3R)-3-methyl-4-morpholinyl]-4-pyrimidinyl}-4-(methyloxy)-1H-indazol-3-amine] | < 0.15 µM
CC[C@@H]1CCCN1c1cc(-c2ccc3c(N)n[nH]c3c2)nc(N)n1 [Example 46, 6-{2-Amino-6-[(2R)-2-ethyl-1-pyrrolidinyl]-4-pyrimidinyl}-1H-indazol-3-amine] | < 0.15 µM
CCOc1cc(-c2cc(N3CCOC[C@H]3C(C)C)nc(N)n2)cc2[nH]nc(N)c12 [Example 199, 6-{2-Amino-6-[(3R)-3-(1-methylethyl)-4-morpholinyl]-4-pyrimidinyl}-4-(ethyloxy)-1H-indazol-3-amine] | < 0.15 µM
Nc1nc(NCc2ccccc2)cc(-c2ccc3c(N)n[nH]c3c2)n1 [Example 2, 6-(3-Amino-1H-indazol-6-yl)-N^4-(phenylmethyl)-2,4-pyrimidinediamine] | < 0.1 µM
CCCNc1cc(-c2ccc3c(N)n[nH]c3c2)nc(N)n1 [Example 74, 6-(3-Amino-1H-indazol-6-yl)-N^4-propyl-2,4-pyrimidinediamine] | < 0.1 µM
Nc1nc(NCC2CCCCC2)cc(-c2ccc3c(N)n[nH]c3c2)n1 [Example 38, 6-(3-Amino-1H-indazol-6-yl)-N^4-(cyclohexylmethyl)-2,4-pyrimidinediamine] | < 0.1 µM
CCOc1cc(-c2cc(N3CCOC[C@H]3CC)nc(NC)n2)cc2[nH]nc(N)c12 [Example 184, 6-[6-[(3R)-3-Ethyl-4-morpholinyl]-2-(methylamino)-4-pyrimidinyl]-4-(ethyloxy)-1H-indazol-3-amine] | < 0.15 µM

The remaining lines, values ahead:

IC50 | SMILES
< 0.02 µM | CNc1nc(-c2cc(F)c3c(N)n[nH]c3c2)cc(N2C[C@@H](C(=O)NC3CCCCC3)CC[C@H]2C)n1 [Example 85, (3S,6R)-1-[6-(3-Amino-4-fluoro-1H-indazol-6-yl)-2-(methylamino)-4-pyrimidinyl]-N-cyclohexyl-6-methyl-3-piperidinecarboxamide]
< 0.1 µM | Nc1nc(NC2CC2)cc(-c2ccc3c(N)n[nH]c3c2)n1 [Example 51, 6-(3-Amino-1H-indazol-6-yl)-N^4-cyclopropyl-2,4-pyrimidinediamine]
< 0.02 µM | C[C@@H]1CC[C@H](C(=O)NC2CCCC2)CN1c1cc(-c2ccc3c(N)n[nH]c3c2)nc(N)n1 [Example 142, (3S,6R)-1-[2-amino-6-(3-amino-1H-indazol-6-yl)-4-pyrimidinyl]-N-cyclopentyl-6-methyl-3-piperidinecarboxamide]
< 0.02 µM | CNc1nc(-c2ccc3c(N)n[nH]c3c2)cc(N2C[C@@H](C(=O)NCc3ccccc3)CC[C@H]2C)n1 [Example 80, (3S,6R)-1-[6-(3-Amino-1H-indazol-6-yl)-2-(methylamino)-4-pyrimidinyl]-6-methyl-N-(phenylmethyl)-3-piperidinecarboxamide]
< 0.05 µM | Nc1nc(-c2ccc3c(N)n[nH]c3c2)cc(N2CCC[C@@H](NC(=O)OC3CCC3)C2)n1 [Example 209, Cyclobutyl{(3R)-1-[2-amino-6-(3-amino-1H-indazol-6-yl)-4-pyrimidinyl]-3-piperidinyl}carbamate]
< 0.02 µM | C[C@@H]1CC[C@H](C(=O)NCCc2ccccc2)CN1c1cc(-c2ccc3c(N)n[nH]c3c2)nc(N)n1 [Example 149, (3S,6R)-1-[2-Amino-6-(3-amino-1H-indazol-6-yl)-4-pyrimidinyl]-6-methyl-N-(2-phenylethyl)-3-piperidinecarboxamide]
< 0.05 µM | CC1CCC(NC(=O)OC2CCCC2)CN1c1cc(-c2ccc3c(N)n[nH]c3c2)nc(N)n1 (stereo not drawn) [Example 120, Cis-cyclopentyl{1-[2-amino-6-(3-amino-1H-indazol-6-yl)-4-pyrimidinyl]-6-methyl-3-piperidinyl}carbamate]
< 0.05 µM | CC(C)OC(=O)N[C@@H]1CCCN(c2cc(-c3ccc4c(N)n[nH]c4c3)nc(N)n2)C1 [Example 217, 1-Methylethyl{(3R)-1-[2-amino-6-(3-amino-1H-indazol-6-yl)-4-pyrimidinyl]-3-piperidinyl}carbamate]
< 0.05 µM | CNc1nc(-c2cc(OC)c3c(N)n[nH]c3c2)cc(N2CCC[C@@H](NC(=O)OC(C)(C)C)C2)n1 [Example 203, 1,1-Dimethylethyl{(3R)-1-[6-[3-amino-4-(methyloxy)-1H-indazol-6-yl]-2-(methylamino)-4-pyrimidinyl]-3-piperidinyl}carbamate]
< 0.05 µM | Nc1nc(-c2ccc3c(N)n[nH]c3c2)cc(N2CCC[C@@H](N3CCOC3=O)C2)n1 [Example 211, 3-{(3R)-1-[2-Amino-6-(3-amino-1H-indazol-6-yl)-4-pyrimidinyl]-3-piperidinyl}-1,3-oxazolidin-2-one]
